Laboratory results published in a melting point compilation (Tetko et al.; mined from patent text by program, amines drawn as free bases though some values may be those of a salt).

| Structure (SMILES) | melting point [°C] |
| --- | --- |
| COC(=O)C1Cc2c([nH]c3ccccc23)C(c2cccc(OC)c2)N1 (stereo not given) | 146 |
| O=C(Cc1ccccc1)Nc1ccnc(NC(=O)NCc2ccccn2)c1 | 219 to 220 |
| Nc1nonc1NCCCOc1cccc(CN2CCCCC2)c1 | 87 to 88 |
| Cc1nc(CC(=O)NCc2cccc3c2C(=O)N(C2CCC(=O)NC2=O)C3=O)c(C)s1 (stereo not given) | 140 to 142 |
| CC(C)CCC(=O)N[C@H]1CC[C@H](CCN2CCN(c3nccc4c3CCO4)CC2)CC1 | 182 |
| COc1nc(OC)c(C(C)C)c(C(=O)c2cc(Cl)cc(Cl)c2)n1 | 120 to 121 |
| [N-]=[N+]=C1C(=O)Oc2cc(OCc3ccccc3)ccc2C1=O | 191 |
| Nc1nc(Nc2cccnc2)sc1C(=O)c1ccc(Cl)cc1Cl | 209 to 210 |
| C[C@@H](n1cnc2cc(Sc3ccccc3)ccc2c1=O)[C@](O)(Cn1cncn1)c1ccc(F)cc1F | 84 to 87 |
| CS(=O)(=O)c1ccc(-c2cc(=O)n(CC(F)(F)F)nc2-c2ccc(F)cc2)cc1 | 177 to 179 |
| CC(C#CC1=C(C)C(=O)C(O)CC1(C)C)=CCO (stereo not given) | 84 to 86 |
| COc1ccc2c(c1OC)OC(C)(C)CC2=O | 75 to 76 |
| COc1cc(OCCN2CCOCC2)c(C=O)cc1-c1cccs1 | 130 to 131 |
| O=C(O)C(Oc1ccc(OCc2ccccc2)cc1)c1ccc(OCCCOc2ccc(Cl)cc2)cc1 (stereo not given) | 105 to 109 |
| COc1cc2c(cc1O[Si](C)(C)C(C)(C)C)CN(C(=O)OC(C)(C)C)CC2 | 46 to 49 |
| CC(C)C(=NSN(C)C(=O)Oc1cccc2c1OC(C)(C)C2)Sc1ccccc1 | 104 to 106 |
| O=C(O)Cc1ccc2c(c1)C(=O)c1ccccc1CO2 | 126 to 128 |
| COC(c1ccc(NC(=O)c2c(C)nn(C)c2C)c(C(C)CC(C)C)c1)(C(F)(F)F)C(F)(F)F (stereo not given) | 94 to 96 |
| C=CCc1cc(COC(=O)C(C)C)ccc1C#CC1(O)CN2CCC1CC2 (stereo not given) | 68 |
| CN1Cc2cccnc2N(c2ccc(F)cc2)C1=O | 212 to 213 |

| Structure (SMILES) | melting point [°C] |
| --- | --- |
| CN1C(c2ccc(F)cc2)=NC(C(F)(F)F)(C(F)(F)F)C1CC(=O)c1ccc(F)cc1 (stereo not given) | 145 to 147 |
| COc1ccc2c(c1)C(=O)N(CCN(C)CCN1C(=O)c3cc(OC)ccc3C(C)(C)C1=O)C(=O)C2(C)C | 150 to 151 |
| COc1ccc2c(c1)OCC(=Cc1cccnc1)C2=O | 126 to 128 |
| C#CCSc1nc(Cl)cc(NCc2ccc(Cl)cc2)n1 | 85 to 88 |
| CCc1cc(-c2cccc(N)n2)c(OC)cc1OCCN(C)C | 109 |
| Cc1ccn2nc(S(=O)(=O)Nc3c(Cl)cccc3Cl)nc2n1 | 126 to 129 |
| O=C(c1ccc(F)c(Cl)c1)N1CCC(F)(CNCc2ccc(CF)cn2)CC1 | 157 to 159 |
| C#CC(=O)c1cc(C(C)(C)C)c(O)c(C(C)(C)C)c1 | 100 to 101 |
| O=c1oc(Cc2ccc(Oc3ccccc3)cc2)nn1-c1ccccc1Cl | 85 |
| COCc1cc2c(s1)CCc1cc(=O)n(-c3ccc(Cl)cc3)nc1-2 | 159 to 160 |
| CCOC(=O)Cn1nnc2cc(-c3ncc(C(F)(F)F)cc3Cl)ccc21 | 127 to 129 |
| Cc1nnc(-c2ccc3occ(-c4ccc(S(C)(=O)=O)c(F)c4)c3c2)o1 | 199 to 200 |
| C=C(C)C(=O)OCCCCCCOc1ccc(C(=O)Oc2ccc(/C=C/C(=O)OC)cc2OC)cc1 | 92 to 94 |
| CC(=O)SCC(C)C(=O)N(CC(=O)O)C1CCCCCC1 (stereo not given) | 116 to 117 |
| CN1CC[C@@H](c2c(O)cc(O)c3c(=O)cc(-c4ccc([N+](=O)[O-])cc4)oc23)[C@@H]1CO | 275 to 277 |
| COc1c(O)cccc1C=O | 116 |
| Cc1c(C(=O)O)sc(=O)c2ccccc12 | 243 to 245 |
| C=C(C)Cc1c(C)c(NC=O)c(C)c(C)c1O | 163 to 164 |
| COc1ccc(OCCCCBr)c(C2Sc3cc(Cl)ccc3N(C)C2=O)c1 (stereo not given) | 106 to 107 |
| CC(O)(c1ccc(F)cc1)C1CCN(CCCC(=O)c2ccc(F)cc2)CC1 (stereo not given) | 116 to 118 |

More lines, now with the values ahead:

| melting point [°C] | Structure (SMILES) |
| --- | --- |
| 120 to 130 | CCC(=C(c1ccccc1)c1ccc(N(CCN(CC)CC)S(C)(=O)=O)cc1)c1ccc(OC)cc1 |
| 46 to 46.5 | CC(=O)[C@@H]1CC[C@@H](C)C[C@H]1O |
| 163 to 165 | O=[N+]([O-])c1cc2ccccc2c2nccnc12 |
| 176 to 178 | COC(=O)C1=C(C)NC(C)=C(S(=O)(=O)c2ccc(OC)cc2)C1c1ccccc1Cl (stereo not given) |
| > 350 | O=c1[nH]ncc2c1c(O)nc1cc(Cl)c(Cl)cc12 |
| 102 to 104 | Cc1cn(C(C(=O)N(C)C)C2CCCCC2)nc1-c1ccccc1 (stereo not given) |
| 152 to 155 | COc1ccc(-c2nc(-c3ccccc3)c(N(c3ccccc3)c3ccccc3)s2)cc1 |
| 176 to 177 | Cc1c2c(c(C(O)c3ccccn3)c(C)c1NC(=O)CC(C)(C)C)OC(C)(C)C2 (stereo not given) |
| 254 | Brc1cn2cc(-c3ccccc3)nc2c(Br)n1 |
| 123 to 124 | OCCCOc1cccc(NC(=S)NCC(F)(F)F)n1 |
| 104 to 106 | CCCOc1c(-c2cc(C=CC(=O)O)ccc2O)cc(C(C)(C)C)cc1C(C)(C)C |
| 196 to 199 | O=C1CNc2ccccc2N1c1ccc(Cl)cc1 |
| 70 to 71 | O=C(NCCCc1cccc2oc(CCCCc3ccccc3)cc12)C1CC1 |
| 153 to 155 | Cc1nc(-c2ccccc2)nc(-c2cccc([N+](=O)[O-])c2)c1C(=O)N1CCN(C)CC1 |
| 285 to 290 | CCCn1c(=O)c2[nH]c(-c3cc(C)n(CC(=O)Nc4ccc(OC)c(OC)c4)n3)nc2n(CCC)c1=O |
| 115 to 116 | O=C(O)CCCON1CCNC1=Nc1c(Cl)cccc1Cl |
| 133 to 136 | CCOC(=O)C(=O)Nc1cccc(N)c1C#N |
| 228 to 230 | O=[N+]([O-])c1oc2ccc(N3Cc4ccccc4C3)cc2c1-c1ccccc1 |
| 141 to 143 | Cc1ccccc1N1CCN(C(=O)c2ccc3n2Cc2ccccc2N(C(=O)c2ccc(C4CCCCC4)cc2)C3)CC1 |
| 136 to 137 | CC(C)(C)OC(=O)CCc1ccnc(-c2nc(=O)c3ccccc3s2)c1 |
| 108 | COc1cc(-c2nc(-n3c(C)ccc3C)sc2SCC2CCCC2)c(OC)cc1C |
| 160 to 162 | CNc1ccc(Cl)c(C(=O)Nc2cccc3c4c(oc23)CCCC4)c1Cl |
| 86 to 91 | CCOC(=O)[C@H](Cc1ccc(-c2c(C(F)(F)F)cc(C)n(C)c2=O)cc1)NC(=O)c1c(Cl)cccc1Cl |
| 148 to 151 | Cc1cc(C2=NNC(C)(C#N)Cc3cc4c(cc32)OCO4)ccc1[N+](=O)[O-] (stereo not given) |
| 117 to 118 | O=C1CC(Cl)C(=O)N1c1ccccc1 (stereo not given) |
| 165 to 167 | O=C(NCc1ccc(F)cc1)c1ccnc(N2CCN(Cc3ccc(F)c(F)c3)C2=O)c1 |
| 174 | O=C(O)c1cc(NCc2ccccc2)ccc1O |
| 89 to 94 | Nc1cc(Cl)cc(Cl)c1C(=O)NCc1ccc(F)cc1 |
| 144 | O=C(c1cc(C(F)(F)F)cc(C(F)(F)F)c1)N1CCC(N2CCN(Cc3ccccc3)CC2)CC1Cc1ccccc1 (stereo not given) |
| 133 | O=C(O)CCNC(=O)C(=Cc1cccc2ccccc12)CS |
